{"source": "patent US20210106703A1", "about": "“RADIOIMMUNOCONJUGATES IN COMBINATION WITH OTHER DRUGS AS TREATMENT AGAINST NHL” (Nordic Nanovector ASA, priority 2017, published 2021)", "experiment_in_all_cases": "Alamar Blue cytotoxicity study", "key": {"[1]": {"tested_on": "DOHH2 cells", "assay_type": "cell-based, human", "settings": "for Combination Index (Chou-Talalay): 120 h; for IC50: Homo sapiens", "experimental": "(§1) Cells were treated with either Humalutin, olaparib or a combination of both and seeded into 96 well-plates. At each time point after treatment, cells were incubated with Alamar Blue (Thermo Fisher, DALL1100) for 4 hours and fluorescence measurements were performed using a multiplate reader Fluoroskan ascent FL to assess cell proliferation and viability. All experiments were done in duplicates using 2 samples in each experiment. Data were normalized to the untreated controls.\n(§2) Cells were incubated with 0.25, 0.5, 1, 2.5 or 5 μg/ml of Humalutin in cell culture flasks and incubated at 37° C./5% CO2. After 18-20 hours cells were washed and resuspended in fresh medium. Cell bound activity after washing was measured using a calibrated gamma detector (Cobra II auto-gamma detector, Packard Instrument Company, Meriden, Conn., USA). Cell concentration and viability was also measured after washing using Guava ViaCount Cell Dispersal Reagent for Flow Cytometry (Merck GaA, Darmstadt, Germany) and measured in a Guava EasyCyte 12HT (Merck KGaA, Darmstadt, Germany) to determine how well the cells survived the incubation. Cells were seeded in 96 well plates.\n(§3) Cells were seeded in 96 well plates pre-coated with from 1 to 100 μM olaparib in 0.2 ml medium and incubated at 37° C./5% CO2 for 72 hours before the cytotoxic effect was measured using alamar blue cell viability assay.\n(§4) Cells were incubated with either 0, 0.5 μg/ml or 1 μg/ml Humalutin and the same procedure as described before for treatment with humalutin alone and olaparib alone was followed. Concentrations of olaparib used were between 1 and 100 μM.\n(§5) The Chou-Talalay model was used for synergy calculations using the Compusyn software. R (goodness of fit) was calculated for the individual treatments and should be over 0.90 in in vitro culture experiments in order to use the calculated combination index (CI). The CI is an indication of synergy: 0-0.9 is considered synergy. Synergysm grading was used as described in WO2006004917A2. […]\nas §2, with “viability were” for “viability was”, “plates. Alamar blue viability measurements were performed 120 h after seeding.” for “plates.”"}, "[2]": {"tested_on": "Granta 519 cells", "assay_type": "cell-based, human", "settings": "for Combination Index (Chou-Talalay): Granta, 120 h; for IC50: Homo sapiens", "experimental": "as §1, §2, §3, §4, §5\nas §2, with “viability were” for “viability was”, “plates. Alamar blue viability measurements were performed 120 h after seeding.” for “plates.”"}, "[3]": {"tested_on": "Rec-1 cells", "assay_type": "cell-based", "settings": "Homo sapiens, Rec1; Rec-1, 72 h incubation after seeding", "experimental": "as §1, §2\n(§6) Cells were seeded in 96 well plates pre-coated with from 1 to 100 μM olaparib in 0.2 ml medium and incubated at 37° C./5% CO2 for 72 hours before the cytotoxic effect was measured using alamar blue cell viability assay. […]"}, "[4]": {"tested_on": "WSU-DLCL2 cells", "assay_type": "cell-based", "settings": "Homo sapiens, WSUDLCL2; WSU-DLCL2, 72 h incubation after seeding", "experimental": "as §1, §2, §6"}, "[5]": {"tested_on": "SUDHL4 cells", "assay_type": "cell-based, human", "settings": "for IC50: Homo sapiens", "experimental": "as §2, with “plates. […]” for “plates.”\nas §1, with “venetoclax” for “olaparib”\nCells were incubated with either 0, 0.5 μg/ml or 1 μg/ml Humalutin and the same procedure as described before for treatment with Humalutin alone and venetoclax alone was followed.\nThe Chou-Talalay model was used for synergy calculations using the Compusyn software. R (goodness of fit) was calculated for the individual treatments and should be over 0.90 in in vitro culture experiments in order to use with confidence the calculated combination index (CI). The CI is an indication of synergy: 0-0.9 is considered synergy. Synergysm grading was used as described in WO2006004917A2.\nas §2, with “viability were” for “viability was”, “plates. Alamar blue viability measurements were performed 120 h after seeding.” for “plates.”\n(§7) Cells were incubated with either 0 (control), 0.5 μg/ml or 1 μg/ml Humalutin for 18 to 20 hours. Cells were then washed and resuspended in fresh medium."}, "[6]": {"tested_on": "U2932 cells", "assay_type": "cell-based, human", "settings": "for IC50: Homo sapiens", "experimental": "as §1, §2, §3, §4, §5\nas §2, with “viability were” for “viability was”, “plates. Alamar blue viability measurements were performed 120 h after seeding.” for “plates.”\nas §7"}}, "note": "Like-named read-outs stand apart in the source and are kept apart here.", "data": [{"smiles": "O=C(c1cc(Cc2n[nH]c(=O)c3ccccc23)ccc1F)N1CCN(C(=O)C2CC2)CC1", "note": "[olaparib]", "values": [{"measurement": "Combination Index (Chou-Talalay)", "setting": "[1]; DOHH2, olaparib dose 2 + Humalutin 1 μg/ml", "value": 1.34}, {"measurement": "Combination Index (Chou-Talalay)", "setting": "[1]; DOHH2, olaparib dose 4 + Humalutin 1 μg/ml", "value": 0.64}, {"measurement": "Combination Index (Chou-Talalay)", "setting": "[1]; DOHH2, olaparib dose 8 + Humalutin 1 μg/ml", "value": 0.43}, {"measurement": "Combination Index (Chou-Talalay)", "setting": "[1]; DOHH2, olaparib dose 10 + Humalutin 1 μg/ml", "value": 0.34}, {"measurement": "IC50", "setting": "[1]; DOHH-2, read-out: IC50 at 120 h, DOHH2, 120 h incubation after seeding", "value": 7.56, "unit": "µM"}, {"measurement": "IC50", "setting": "[1]; DOHH-2, DOHH2, 72 h incubation after seeding, read-out: IC50", "value": 2.06, "unit": "µM"}, {"measurement": "Synergism grade by Combination Index, combination with Humalutin", "setting": "[2]; Granta 519, Humalutin 0.5 or 1 μg/ml, 72 h", "value": "very strong synergism"}, {"measurement": "Combination Index (Chou-Talalay)", "setting": "[2]; olaparib dose 2 + Humalutin 1 μg/ml", "value": 1.77}, {"measurement": "Combination Index (Chou-Talalay)", "setting": "[2]; olaparib dose 4 + Humalutin 1 μg/ml", "value": 0.15}, {"measurement": "Combination Index (Chou-Talalay)", "setting": "[2]; olaparib dose 8 + Humalutin 1 μg/ml", "value": 0.06}, {"measurement": "Combination Index (Chou-Talalay)", "setting": "[2]; olaparib dose 10 + Humalutin 1 μg/ml", "value": 0.10}, {"measurement": "IC50", "setting": "[2]; read-out: IC50 at 120 h, Granta 519, 120 h incubation after seeding", "value": 15, "unit": "µM"}, {"measurement": "IC50", "setting": "[2]; Granta 519, 72 h incubation after seeding, read-out: IC50", "value": 2.68, "unit": "µM"}, {"measurement": "IC50", "setting": "[3]", "value": 0.721, "unit": "µM"}, {"measurement": "IC50", "setting": "[4]", "value": 1.26, "unit": "µM"}, {"measurement": "IC50", "setting": "[5]; SU-DHL-4, read-out: IC50 at 120 h, SUDHL-4, 120 h incubation after seeding", "value": 22.1, "unit": "µM"}, {"measurement": "IC50", "setting": "[5]; SU-DHL-4, SUDHL4, 72 h incubation after seeding, read-out: IC50", "value": 1.04, "unit": "µM"}, {"measurement": "Synergism grade by Combination Index, combination with Humalutin", "setting": "[5]; SUDHL4, Humalutin 0.5 or 1 μg/ml, 72 h", "value": "moderate antagonism"}, {"measurement": "IC50", "setting": "[6]; read-out: IC50 at 120 h, U2932, 120 h incubation after seeding", "value": 89.1, "unit": "µM"}, {"measurement": "IC50", "setting": "[6]; U2932, 72 h incubation after seeding, read-out: IC50", "value": 1.93, "unit": "µM"}, {"measurement": "Synergism grade by Combination Index, combination with Humalutin", "setting": "[6]; U2932, Humalutin 0.5 or 1 μg/ml, 72 h", "value": "very strong synergism"}]}]}
